Columns and labels:
Type in all cases: in vivo
[1] = system: Barnyardgrass (Echinochloa crus-galli); experiment: Upland Foliar Application Test; conditions: 30 g ai/a; foliar application at 2-3 leaf stage, emulsion; observed on the 30th day
Excerpt: (§1) Resin-made 1/10000-are pots were filled with the soil of an upland field. Redroot pigweed, morningglory (Ipomoea pupurea), common lambsquarters, foxtail meadow, johnsongrass, barnyardgrass, green foxtail, large crabgrass, soybean, corn and cotton were separately seeded and were allowed to germinate in a green house. When each plant grew to the stage of 2-3 leaves, an emulsion formulated from a predetermined amount of each test compound in a similar manner to the method described in Formulation Example 11 was diluted with water and then sprayed at a predetermined application rate by means of a pressure-operated ULV (ultra low volume) sprayer. The application rate was controlled at 5 l per are. Influence to the crops and weeds were observed on the 30th day after the spray of the herbicides. The results are shown in Table 4 in which the degree of damages of each test plant and the degree of injury to each crop are shown in a similar manner to Test 2.

Common lambsquarters = experiment: Upland Foliar Application Test; conditions: 30 g ai/a; foliar application at 2-3 leaf stage, emulsion; observed on the 30th day
Excerpt: as §1

[2] = system: Crabgrass (Digitaria adsendens); experiment: Upland Foliar Application Test; conditions: 30 g ai/a; foliar application at 2-3 leaf stage, emulsion; observed on the 30th day
Excerpt: as §1

[3] = system: Foxtail (Setaria viridis); experiment: Upland Foliar Application Test; conditions: 30 g ai/a; foliar application at 2-3 leaf stage, emulsion; observed on the 30th day
Excerpt: as §1

Foxtail meadow = experiment: Upland Foliar Application Test; conditions: 30 g ai/a; foliar application at 2-3 leaf stage, emulsion; observed on the 30th day
Excerpt: as §1

Johnsongrass = experiment: Upland Foliar Application Test; conditions: 30 g ai/a; foliar application at 2-3 leaf stage, emulsion; observed on the 30th day
Excerpt: as §1

Redroot Pigweed = experiment: Upland Foliar Application Test; conditions: 30 g ai/a; foliar application at 2-3 leaf stage, emulsion; observed on the 30th day
Excerpt: as §1

Corn (Zea maize) = experiment: Upland Foliar Application Test, crop injury; conditions: 30 g ai/a; foliar application at 2-3 leaf stage, emulsion; observed on the 30th day
Excerpt: as §1

[4] = system: Cotton (Gossypium indicum); experiment: Upland Foliar Application Test, crop injury; conditions: 30 g ai/a; foliar application at 2-3 leaf stage, emulsion; observed on the 30th day
Excerpt: as §1

Soybean (Glycine max) = experiment: Upland Foliar Application Test, crop injury; conditions: 30 g ai/a; foliar application at 2-3 leaf stage, emulsion; observed on the 30th day
Excerpt: as §1

[5] = system: Arrowhead sp. (Sagittaria pygmaea); experiment: Submerged Soil Treatment Test (Growth Stage Treatment); conditions: 30 g ai/a, growth stage treatment (barnyardgrass two-leaf stage), granule, observed 30 days later
Description: (§2) 1/5000-are Wagner pots were filled with soil. Seeds or tubers of barnyardgrass, bulrush and Sagittaria pygmaea were seeded or planted under submerged condition. Two pairs of rice seedlings (2-3 leaf stage), which had been reared in advance, were transplanted to each pot and were allowed to grow in a green house. Each pair consisted of two rice seedlings. When the barnyardgrass grew to the two-leaf stage, each pot was treated with a granule which had been prepared by processing a predetermined amount of the test composition in accordance with a similar method to the method described in Formulation Example 9. The state of emergence of weeds and the state of injury of rice were observed 30 days later. In the table, the degrees of damages of the test plants and the degrees of injury of the rice are shown in a similar manner to Example 2.

[6] = system: Barnyardgrass (Echinochloa crus-galli); experiment: as above; conditions: 30 g ai/a, growth stage treatment (barnyardgrass two-leaf stage), granule, observed 30 days later
Description: as §2

[7] = system: Bulrush (Scirpus juncoides); experiment: as above; conditions: 30 g ai/a, growth stage treatment (barnyardgrass two-leaf stage), granule, observed 30 days later
Description: as §2

SMILES | Herbicidal effects Barnyardgrass (Echinochloa crus-galli) [1] | Herbicidal effects Common lambquarters (Common lambsquarters) | Herbicidal effects Crabgrass (Digitaria adsendens) [2] | Herbicidal effects Foxtail (Setaria viridis) [3] | Herbicidal effects Foxtail meadow (Foxtail meadow) | Herbicidal effects Johnsongrass (Johnsongrass) | Herbicidal effects Redroot Pigweed (Redroot Pigweed) | Crop injury Corn (Zea maize) (Corn (Zea maize)) | Crop injury Cotton (Gossypium indicum) [4] | Crop injury Soybean (Glycine max) (Soybean (Glycine max)) | Herbicidal effects Arrowhead sp. (Sagittaria pygmaea) [5] | Herbicidal effects Barnyardgrass (Echinochloa crus-galli) [6] | Herbicidal effects Bulrush (Scirpus juncoides) [7]
COc1cc(OC)nc(Oc2cccnc2C(OC)OC)n1 [Compound No. 2, 3-(4.6-dimethoxy-2-pyrimidinyloxy)-2-pyridinecarboxaldehyde dimethylacetal] | 4 (6-10 (Severe damages)) | 4 (6-10 (Severe damages)) | 4 (6-10 (Severe damages)) | 4 (6-10 (Severe damages)) | 4 (6-10 (Severe damages)) | 5 (0-5 (Death)) | 5 (0-5 (Death)) | 0 (91-100 (No damages)) | 0 (91-100 (No damages)) | 0 (91-100 (No damages)) | 4 (6-10 (Severe damages)) | 4 (6-10 (Severe damages)) | 4 (6-10 (Severe damages))
CCCCOC(OCCCC)c1ncccc1Oc1nc(OC)cc(OC)n1 [Compound No. 4] | 5 (0-5 (Death)) | 5 (0-5 (Death)) | 5 (0-5 (Death)) | 5 (0-5 (Death)) | 5 (0-5 (Death)) | 5 (0-5 (Death)) | 5 (0-5 (Death)) | 0 (91-100 (No damages)) | 0 (91-100 (No damages)) | 0 (91-100 (No damages)) | 4 (6-10 (Severe damages)) | 5 (0-5 (Death)) | 4 (6-10 (Severe damages))
